Source: patent US11325940B2, “Certain chemical entities, compositions, and methods” (NeuPharma, Inc., priority 2012, dated 2022)
≈ marks a conversion by molar mass, not a printed value. Read-outs that look alike come from different tables or passages of the source.

Tests used:
[1] = Equilibrium solubility in aqueous buffer (HPLC UV); type: physicochemical; conditions: thermodynamic from solid
Procedure: The equilibrium solubility of compounds was measured in aqueous buffer. Excess amount of solid compound was added into buffer solution and the sample was briefly sonicated and then shaken at rt for 24 h. The sample was filtered and the concentration was analyzed by HPLC UV. A standard solution at 0.2 mg/mL was prepared in methanol or acetonitrile for each compound and used as an external standard for quantification. The scale utilized in Tables 2 is as follows: +++ greater than 1 mg/mL; ++ between 1 and 0.1 mg/mL; and + less than 0.1 mg/mL.

A549 cells = assay: Inhibition of cancer cell growth, MTT assay; type: cell-based; conditions: Homo sapiens; A549 cells, 72 h compound exposure, MTT; read-out: IC50
Procedure: Inhibition of cell growth by compounds was measured using MTT assay (Mosmann, T., Journal of Immunological Methods, 1983, 65, 55-63). Tumor cell lines were purchased from ATCC (American Type Culture Collection, Manassas, Va.). All cell lines were maintained in RPMI 1640 (Hyclone) supplemented with 10% fetal bovine serum (FBS, Hyclone), glutamine (2 mM, Hyclone), and antibiotics (penicillin 100 U/mL and streptomycin 50 μg/mL) at 37° C. in a humidified atmosphere of 5% CO2 in air. Taxol (as a positive control, Sigma) and compounds were dissolved in DMSO (Sigma), and the final concentration of DMSO in the medium was 1%. Tumor cells were plated in 96-well plates at densities of about 4000 cells/well of a 96-well plate and allowed to adhere/grow for 24 h. They were then treated with various concentrations of drug for 72 h. 3-(4,5-Dimethylthiazol-2-yl)-2,5-diphenyltetrazolium bromide (MTT, Sigma) was used to determine the number of viable cells at the time of compound addition and the number of cells remaining after 72 h compound exposure. The number of cells remaining after 72 h was compared to the number of viable cells at the time of compound addition by measuring the absorbance at 570 nm, allowing for the calculation of growth inhibition.
All concentrations of compounds were tested in triplicate and controls were averaged over 4 wells. IC50 was calculated by plotting the concentration of compound vs the percentage of inhibition in treated wells using GraphPad Prism 5. […] The scale utilized in Table 3 is as follows: ++++ less than 20 nM; +++ between 20 nM and 100 nM; ++ between 100 nM and 1000 nM; and + greater than 1000 nM.

[2] = aqueous buffer, equilibrium solubility, NaOAc/AcOH buffer (100 mM, pH 5.0), rt, 24 h, read-out: Solubility

SMILES: C[C@]12CC[C@H](NC(=O)N3CCNCC3)C[C@H]1CC[C@@H]1[C@@H]2CC[C@]2(C)[C@@H](c3ccc(=O)oc3)CC[C@]12O [Compound C04, N-((3S,5R,8R,9S,10S,13R,14S,17R)-14-hydroxy-10,13-dimethyl-17-(2-oxo-2H-pyran-5-yl)hexadecahydro-1H-cyclopenta[a]phenanthren-3-yl)piperazine-1-carboxamide]
- solubility at 24 h [1, 2]: > 1000 µg/mL
- IC50 (A549 cells): < 0.02 µM

SMILES: C[C@]12CCC(NC(=O)N3CCNCC3)C[C@H]1CC[C@@H]1[C@@H]2CC[C@]2(C)[C@@H](C3=CC(=O)OC3)CC[C@]12O (stereo partly drawn) [Compound C24, N-((5R,8R,9S,10S,13R,14S,17R)-14-hydroxy-10,13-dimethyl-17-(5-oxo-2,5-dihydrofuran-3-yl)hexadecahydro-1H-cyclopenta[a]phenanthren-3-yl)piperazine-1-carboxamide]
- solubility at 24 h ([1]; pH 5, aqueous buffer): > 1000 µg/mL
- IC50 (A549 cells): 0.02 to 0.1 µM

SMILES: C[C@]12CCC(N3CCNC(=O)C3)C[C@H]1CC[C@@H]1[C@@H]2CC[C@]2(C)[C@@H](c3ccc(=O)oc3)CC[C@]12O (stereo partly drawn) [Compound C19, 4-((5R,8R,9S,10S,13R,14S,17R)-14-hydroxy-10,13-dimethyl-17-(2-oxo-2H-pyran-5-yl)hexadecahydro-1H-cyclopenta[a]phenanthren-3-yl)piperazin-2-one]
- solubility at 24 h [1, 2]: 100 to 1000 µg/mL (≈ 213 to 2130 µM)
- IC50 (A549 cells): 0.02 to 0.1 µM

SMILES: C[C@@H](N)C(=O)N[C@H]1CC[C@@]2(C)[C@H](CC[C@@H]3[C@@H]2CC[C@]2(C)[C@@H](c4ccc(=O)oc4)CC[C@]32O)C1 [Compound C26, (R)-2-amino-N-((3S,5R,8R,9S,10S,13R,14S,17R)-14-hydroxy-10,13-dimethyl-17-(2-oxo-2H-pyran-5-yl)hexadecahydro-1H-cyclopenta[a]phenanthren-3-yl)propanamide]
- solubility at 24 h [1, 2]: > 1000 µg/mL
- IC50 (A549 cells): < 0.02 µM

SMILES: C[C@]12CCC(NCCN3CCOCC3)C[C@H]1CC[C@@H]1[C@@H]2CC[C@]2(C)[C@@H](c3ccc(=O)oc3)CC[C@]12O (stereo partly drawn) [Compound C18, 5-((5R,8R,9S,10S,13R,14S,17R)-14-hydroxy-10,13-dimethyl-3-((2-morpholinoethyl)amino)hexadecahydro-1H-cyclopenta[a]phenanthren-17-yl)-2H-pyran-2-one]
- solubility at 24 h [1, 2]: > 1000 µg/mL
- IC50 (A549 cells): 0.1 to 1 µM

SMILES: C[C@]12CCC(NC(=O)N3CCOCC3)C[C@@]1(O)CC[C@@H]1[C@@H]2CC[C@]2(C)[C@@H](c3ccc(=O)oc3)CC[C@]12O (stereo partly drawn) [Compound C30, N-((5S,8R,9S,10R,13R,14S,17R)-5,14-dihydroxy-10,13-dimethyl-17-(2-oxo-2H-pyran-5-yl)hexadecahydro-1H-cyclopenta[a]phenanthren-3-yl)morpholine-4-carboxamide]
- solubility at 24 h [1, 2]: 100 to 1000 µg/mL (≈ 194 to 1940 µM)
- IC50 (A549 cells): 0.02 to 0.1 µM
